# Test results: ChEMBL document CHEMBL1201862, “PubChem BioAssay data set” (2004)
# Active and inactive are the calls of the source. Cut-off read from the data, not from the text of the source, for most assays here: actives have a measured IC50 and inactives only a lower limit.
# Assays:
# [1] = biological target: T1, Short transient receptor potential channel 4 (Mus musculus, UniProt Q9QUQ5); assay: TRPC4 positive allosteric modulators, dose response, cell-based, HEK293 TRPC4/mu-opioid, Fluo-4 calcium, EC20 DAMGO (AID 434941); format: functional
# T1 sequence (Q9QUQ5 whole entry): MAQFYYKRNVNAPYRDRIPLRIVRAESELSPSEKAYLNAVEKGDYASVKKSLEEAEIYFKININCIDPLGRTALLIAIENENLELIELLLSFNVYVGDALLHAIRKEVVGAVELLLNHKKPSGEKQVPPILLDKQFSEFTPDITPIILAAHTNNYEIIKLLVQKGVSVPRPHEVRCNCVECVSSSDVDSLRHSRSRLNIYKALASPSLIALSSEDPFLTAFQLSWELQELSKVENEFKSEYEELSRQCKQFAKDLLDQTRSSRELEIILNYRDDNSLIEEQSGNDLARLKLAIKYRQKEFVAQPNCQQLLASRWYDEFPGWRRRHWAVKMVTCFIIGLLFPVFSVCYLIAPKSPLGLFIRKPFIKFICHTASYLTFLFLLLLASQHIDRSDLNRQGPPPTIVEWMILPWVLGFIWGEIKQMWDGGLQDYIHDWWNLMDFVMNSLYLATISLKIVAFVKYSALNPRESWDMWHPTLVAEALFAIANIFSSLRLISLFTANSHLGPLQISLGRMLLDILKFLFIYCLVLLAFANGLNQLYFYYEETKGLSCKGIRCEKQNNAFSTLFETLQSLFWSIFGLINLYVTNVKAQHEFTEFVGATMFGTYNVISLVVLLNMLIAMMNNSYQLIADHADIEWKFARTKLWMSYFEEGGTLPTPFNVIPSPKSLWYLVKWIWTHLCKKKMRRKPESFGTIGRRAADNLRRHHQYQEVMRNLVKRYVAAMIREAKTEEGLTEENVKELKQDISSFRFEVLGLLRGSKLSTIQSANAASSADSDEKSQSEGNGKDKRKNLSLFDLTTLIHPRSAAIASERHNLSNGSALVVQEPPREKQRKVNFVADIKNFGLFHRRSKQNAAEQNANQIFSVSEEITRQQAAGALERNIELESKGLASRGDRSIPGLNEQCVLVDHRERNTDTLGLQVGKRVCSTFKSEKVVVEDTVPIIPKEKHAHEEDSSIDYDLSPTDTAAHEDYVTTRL
# [2] = biological target: Alkaline phosphatase, placental type (Homo sapiens, UniProt P05187); assay: PLAP enzyme inhibitors, confirmation, biochemical, luminescence (AID 1512); format: functional
# [3] = human group III sPLA2 inhibitors, dose response, biochemical, QFRET, IC50 (AID 743457);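 note: green fluorescence rise as the enzyme cleaves BODIPY PC-A2 in liposomes; potency for inhibition of the enzyme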
# [4] = biological target: T2, Tyrosine-protein phosphatase non-receptor type 12 (Homo sapiens, UniProt Q05209); assay: SAR Selectivity Analysis of small molecule inhibitors of PEST using pCAP in a fluorescence assay. [Related pubchem assays (depositor defined):AID1779, AID1784, AID2135]; format: functional
# T2 sequence (Q05209 whole entry): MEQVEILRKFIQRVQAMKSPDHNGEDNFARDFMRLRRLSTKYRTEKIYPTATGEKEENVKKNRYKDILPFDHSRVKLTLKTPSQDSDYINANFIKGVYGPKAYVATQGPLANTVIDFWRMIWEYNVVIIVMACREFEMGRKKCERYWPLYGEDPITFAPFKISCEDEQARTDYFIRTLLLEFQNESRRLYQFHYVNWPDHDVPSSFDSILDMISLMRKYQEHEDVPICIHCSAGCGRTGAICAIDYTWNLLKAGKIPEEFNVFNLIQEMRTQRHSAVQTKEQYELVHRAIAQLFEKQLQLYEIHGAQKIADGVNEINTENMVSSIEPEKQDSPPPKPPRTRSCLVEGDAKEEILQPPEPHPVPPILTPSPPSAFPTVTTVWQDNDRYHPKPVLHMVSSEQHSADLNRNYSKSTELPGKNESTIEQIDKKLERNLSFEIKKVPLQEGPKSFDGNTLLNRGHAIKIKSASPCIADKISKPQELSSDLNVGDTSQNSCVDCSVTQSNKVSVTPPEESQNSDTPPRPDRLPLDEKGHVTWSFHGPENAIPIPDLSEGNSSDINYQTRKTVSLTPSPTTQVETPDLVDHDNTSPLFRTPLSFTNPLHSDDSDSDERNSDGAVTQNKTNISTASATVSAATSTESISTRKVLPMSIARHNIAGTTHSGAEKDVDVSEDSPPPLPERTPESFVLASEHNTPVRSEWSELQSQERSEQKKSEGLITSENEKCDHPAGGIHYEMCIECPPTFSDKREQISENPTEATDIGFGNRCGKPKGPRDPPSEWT
# [5] = biological target: T3, Tyrosine-protein phosphatase non-receptor type 22 (Homo sapiens, UniProt Q9Y2R2); assay: SAR LYP1 Fluorescent Assay using pCAP substrate for In Vitro dose response studies - Set 2. [Related pubchem assays (depositor defined):AID1779, AID1784, AID2135, AID449727]; format: functional
# T3 sequence (Q9Y2R2 whole entry): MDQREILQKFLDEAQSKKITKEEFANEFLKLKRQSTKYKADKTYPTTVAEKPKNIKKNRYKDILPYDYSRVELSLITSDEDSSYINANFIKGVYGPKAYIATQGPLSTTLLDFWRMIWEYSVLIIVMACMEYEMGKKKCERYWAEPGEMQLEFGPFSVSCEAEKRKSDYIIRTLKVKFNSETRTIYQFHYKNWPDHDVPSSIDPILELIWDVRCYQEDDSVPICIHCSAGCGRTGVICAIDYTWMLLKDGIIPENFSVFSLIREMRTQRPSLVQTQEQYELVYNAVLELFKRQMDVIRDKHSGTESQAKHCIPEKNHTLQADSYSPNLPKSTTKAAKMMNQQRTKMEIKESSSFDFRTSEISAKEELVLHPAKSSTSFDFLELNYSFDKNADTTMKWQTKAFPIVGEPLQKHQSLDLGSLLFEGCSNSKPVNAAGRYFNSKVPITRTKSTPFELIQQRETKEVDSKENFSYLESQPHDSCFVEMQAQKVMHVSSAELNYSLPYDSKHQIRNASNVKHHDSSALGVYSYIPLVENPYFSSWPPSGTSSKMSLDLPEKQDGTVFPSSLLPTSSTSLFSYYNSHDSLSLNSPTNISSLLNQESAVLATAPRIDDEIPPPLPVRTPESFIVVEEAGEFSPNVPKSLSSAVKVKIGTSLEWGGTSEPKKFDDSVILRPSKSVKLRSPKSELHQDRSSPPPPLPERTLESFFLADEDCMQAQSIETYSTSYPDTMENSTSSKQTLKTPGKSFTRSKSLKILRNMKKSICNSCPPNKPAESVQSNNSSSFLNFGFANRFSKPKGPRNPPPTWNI
# [6] = biological target: T3, Tyrosine-protein phosphatase non-receptor type 22; assay: SAR LYP1 Fluorescent Assay using OMFP substrate for In Vitro dose response studies - Set 3. [Related pubchem assays (depositor defined):AID1779, AID1784, AID2140, AID2686]; format: functional
# [7] = biological target: T3, Tyrosine-protein phosphatase non-receptor type 22; assay: PubChem AID 2135
# [8] = biological target: T3, Tyrosine-protein phosphatase non-receptor type 22; assay: PubChem AID 2140
# [9] = biological target: T4, Tyrosine-protein phosphatase non-receptor type 7 (Homo sapiens, UniProt P35236); assay: HePTP (PTPN7) phosphatase inhibitor potency, SAR follow-up, biochemical, set 2 (AID 449736); format: functional
# T4 sequence (P35236 whole entry): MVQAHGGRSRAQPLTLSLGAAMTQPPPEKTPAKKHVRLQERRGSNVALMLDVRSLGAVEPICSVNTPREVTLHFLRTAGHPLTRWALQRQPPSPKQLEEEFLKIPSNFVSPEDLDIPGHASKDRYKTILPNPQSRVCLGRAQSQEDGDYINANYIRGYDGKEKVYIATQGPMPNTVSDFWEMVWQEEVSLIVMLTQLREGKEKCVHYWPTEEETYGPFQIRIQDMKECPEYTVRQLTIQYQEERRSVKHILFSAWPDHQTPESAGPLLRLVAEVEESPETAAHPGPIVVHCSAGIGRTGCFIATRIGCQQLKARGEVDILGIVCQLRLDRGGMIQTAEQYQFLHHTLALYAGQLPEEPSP
# [10] = biological target: T3, Tyrosine-protein phosphatase non-receptor type 22; assay: LYP (PTPN22) phosphatase inhibitor potency, SAR follow-up, biochemical, pCAP fluorogenic substrate, fluorescence, set 3 (AID 449727); format: functional
# [11] = biological target: T3, Tyrosine-protein phosphatase non-receptor type 22; assay: SAR LYP1 Fluorescent Assay using OMFP substrate for In Vitro dose response studies - Set 2. [Related pubchem assays (depositor defined):AID1779, AID1784, AID2140, AID449726, AID488869]; format: functional
# [12] = biological target: T5, Mannose-6-phosphate isomerase (Homo sapiens, UniProt P34949); assay: PMI enzyme inhibitors, confirmation, biochemical, fluorescence intensity (AID 1535)
# T5 sequence (P34949 whole entry): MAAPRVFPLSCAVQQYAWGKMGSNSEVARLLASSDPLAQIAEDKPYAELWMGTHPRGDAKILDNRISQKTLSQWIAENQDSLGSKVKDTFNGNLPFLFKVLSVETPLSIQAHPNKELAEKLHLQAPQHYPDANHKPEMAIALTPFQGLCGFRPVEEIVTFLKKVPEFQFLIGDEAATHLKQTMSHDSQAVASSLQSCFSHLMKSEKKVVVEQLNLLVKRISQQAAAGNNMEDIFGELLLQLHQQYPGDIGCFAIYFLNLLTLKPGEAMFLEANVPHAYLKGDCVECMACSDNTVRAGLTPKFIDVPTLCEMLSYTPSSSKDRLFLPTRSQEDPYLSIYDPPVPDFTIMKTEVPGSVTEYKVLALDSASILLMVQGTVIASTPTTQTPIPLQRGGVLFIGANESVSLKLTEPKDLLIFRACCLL
# Phosphomannomutase 2 = Phosphomannomutase 2 (Homo sapiens, UniProt O15305); assay: Counter screen SAR assay for PMM2 inhibitors via a fluorescence intensity assay. [Related pubchem assays (depositor defined):AID1545, AID1574]
# Chain of Phosphomannomutase 2 (O15305 whole entry): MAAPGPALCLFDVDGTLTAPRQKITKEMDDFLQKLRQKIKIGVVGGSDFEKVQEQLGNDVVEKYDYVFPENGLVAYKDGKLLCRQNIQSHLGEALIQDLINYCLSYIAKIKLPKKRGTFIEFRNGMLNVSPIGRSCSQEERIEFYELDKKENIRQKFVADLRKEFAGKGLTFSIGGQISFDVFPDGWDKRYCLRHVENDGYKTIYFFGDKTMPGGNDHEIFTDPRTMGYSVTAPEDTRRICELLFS
# Chain of Alkaline phosphatase, placental type (P05187 whole entry): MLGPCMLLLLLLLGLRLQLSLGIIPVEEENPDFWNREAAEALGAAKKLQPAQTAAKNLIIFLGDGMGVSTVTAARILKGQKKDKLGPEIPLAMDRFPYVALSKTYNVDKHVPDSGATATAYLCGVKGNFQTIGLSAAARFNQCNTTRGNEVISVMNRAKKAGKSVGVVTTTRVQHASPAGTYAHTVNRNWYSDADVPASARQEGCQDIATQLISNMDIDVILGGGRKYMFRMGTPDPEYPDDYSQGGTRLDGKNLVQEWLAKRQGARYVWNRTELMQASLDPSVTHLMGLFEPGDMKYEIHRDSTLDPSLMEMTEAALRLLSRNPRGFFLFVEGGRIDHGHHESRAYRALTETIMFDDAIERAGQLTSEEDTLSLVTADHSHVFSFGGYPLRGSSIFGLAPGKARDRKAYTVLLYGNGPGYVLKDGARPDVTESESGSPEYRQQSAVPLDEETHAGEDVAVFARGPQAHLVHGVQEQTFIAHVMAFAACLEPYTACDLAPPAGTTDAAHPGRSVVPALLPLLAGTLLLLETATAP
compound,measurement,setting,value
c1ccc(-c2nc(N3CCNCC3)nc3ccccc23)cc1,EC50,[1],0.3 µM (active)
CCN=C(S)NN=C(S)NCc1ccccc1,IC50,[2],> 100 µM (inactive)
same,IC50,[3],> 122 µM (inactive)
CCOc1cc(/C=C(/C#N)c2cccc(F)c2)cc(Cl)c1OCc1ccc(C(=O)O)cc1,IC50,[4],5.08 µM (active)
same,IC50,[5],36.1 µM (active)
same,IC50,[6],34.6 µM (active)
same,IC50,[7],> 100 µM (inactive)
same,IC50,[8],> 100 µM (inactive)
same,IC50,[9],2.25 µM (active)
same,IC50,[10],46.7 µM (active)
same,IC50,[11],21.8 µM (active)
FC(F)(F)c1ccc(/N=c2\ssnc2Cl)cc1,IC50,[12],32.7 µM (active)
same,IC50,Phosphomannomutase 2,> 100 µM (inactive)
Oc1[nH]nc(-c2ccccc2)c1/C=N/c1ccc(Cl)cc1,EC50,[1],2.11 µM (active)
